Patent US10314825B2, “Agent for treatment of PBC” (KOWA COMPANY, LTD., priority 2017, dated 2019)

Columns and labels:
Format in all cases: in vivo, human
[1] = tested on: patients with dyslipidemia showing a high level of triglyceride (TG); assay: Changes in ALP levels after 12 weeks, clinical trial data (Example 1); details: for ALP level, Rate of change (LSmean): 12 weeks vs baseline
Description: Compound A was administered at a dose of 0.05 to 0.4 mg per day to Compound A group. […] Note that comparisons between the groups were investigated by using covariance analysis with baseline levels used as covariates.

[2] = tested on: patients with dyslipidemia showing a high level of triglyceride (TG); assay: Changes in total bilirubin levels after 12 weeks, clinical trial data (Example 1); details: for total bilirubin level, Rate of change (LSmean): 12 weeks vs baseline
Description: By using data (1965 cases in total) obtained in a clinical trial (8 tests with an administration period of 12 weeks or more) of Compound A, which had been performed for patients with dyslipidemia showing a high level of triglyceride (TG), the effects of Compound A for ALP and total bilirubin were investigated. Compound A was administered at a dose of 0.05 to 0.4 mg per day to Compound A group. […] Each compound was administered to Compound A group and a control group for 12 weeks, and changes in the levels of ALP before and after the administration are shown in Table 1 and FIG. 1, and changes in the levels of total bilirubin before and after the administration are shown in Table 2 and FIG. 2. Note that comparisons between the groups were investigated by using covariance analysis with baseline levels used as covariates.

[3] = tested on: patients with dyslipidemia showing a high level of TG being treated with ursodeoxycholic acid; assay: Changes in ALP levels after 12 weeks in patients being treated with ursodeoxycholic acid (Example 2); details: 0.05 to 0.4 mg per day
Description: (§1) Data of patients being treated with ursodeoxycholic acid (15 cases in total) were extracted from the data obtained in a clinical trial (8 tests with an administration period of 12 weeks or more) of Compound A, which had been performed for patients with dyslipidemia showing a high level of TG, the effects of Compound A for the ALP and the total bilirubin were investigated. Compound A was administered at a dose of 0.05 to 0.4 mg per day to Compound A group. Further, placebo was administered to a control group. Each compound was administered to Compound A group and a control group for 12 weeks, and changes in the levels of ALP before and after the administration are shown in Table 3 and FIG. 3, and changes in the levels of total bilirubin before and after the administration are shown in Table 4 and FIG. 4. Note that comparisons between the groups were investigated by using covariance analysis with baseline levels used as covariates.

[4] = tested on: patients with dyslipidemia showing a high level of TG being treated with ursodeoxycholic acid; assay: Changes in total bilirubin levels after 12 weeks in patients being treated with ursodeoxycholic acid (Example 2); details: 0.05 to 0.4 mg per day
Description: as §1

[5] = 0.05 to 0.4 mg per day, 12 weeks
[6] = 100 mg/day micronized fenofibrate capsule formulation
[7] = 106.6 mg/day solid dispersion fenofibrate tablet

| Structure (SMILES) | effect on level of ALP as compared with placebo [1, 5] | effect on level of ALP compared with fenofibrate at the maximum clinical dose (200 mg per day) ([1]; dose of 0.1 mg or more, 12 weeks) | effect on level of total bilirubin as compared with placebo [2, 5] | effect on level of ALP [3] | effect on level of total bilirubin [4] | ALP level, Rate of change (LSmean) [1, 6] | ALP level, 12 Weeks ([1]; 100 mg/day micronized fenofibrate capsule formulation, 12 weeks, baseline 226.3) [IU/L] | ALP level, Rate of change (LSmean) [1, 7] | ALP level, 12 Weeks ([1]; 106.6 mg/day solid dispersion fenofibrate tablet, 12 weeks, baseline 235.3) [IU/L] | ALP level, 12 Weeks ([1]; 200 mg/day micronized fenofibrate capsule formulation, 12 weeks, baseline 222.5) [IU/L] | total bilirubin level, Rate of change (LSmean) [2, 6] | total bilirubin level, 12 Weeks ([2]; 100 mg/day micronized fenofibrate capsule formulation, 12 weeks, baseline 0.8) [mg/dL] | total bilirubin level, Rate of change (LSmean) [2, 7] | total bilirubin level, 12 Weeks ([2]; 106.6 mg/day solid dispersion fenofibrate tablet, 12 weeks, baseline 0.8) [mg/dL] | total bilirubin level, Rate of change (LSmean) ([2]; 200 mg/day micronized fenofibrate capsule formulation) | total bilirubin level, 12 Weeks ([2]; 200 mg/day micronized fenofibrate capsule formulation, 12 weeks, baseline 0.9) [mg/dL] |
| --- | --- | --- | --- | --- | --- | --- | --- | --- | --- | --- | --- | --- | --- | --- | --- | --- |
| CC[C@@H](Oc1cccc(CN(CCCOc2ccc(OC)cc2)c2nc3ccccc3o2)c1)C(=O)O [Compound A, (R)-2-[3-[[N-(benzoxazol-2-yl)-N-3-(4-methoxyphenoxy)propyl]aminomethyl]phenoxy] butyric acid] | decreases dose-dependently | decreases the level of ALP more strongly than the fenofibrate | decreases dose-dependently | decreases the levels of ALP and total bilirubin | decreases the levels of ALP and total bilirubin | – | – | – | – | – | – | – | – | – | – | – |
| CC(C)OC(=O)C(C)(C)Oc1ccc(C(=O)c2ccc(Cl)cc2)cc1 [fenofibrate] | – | – | – | – | – | −11.1 | 198.7 | −14.7 | 198.8 | 182.5 | −5.2 | 0.7 | −4.2 | 0.7 | −9.3 | 0.7 |
